Experimental data from PubChem BioAssay AID216 (DTP/NCI, 2004).
Where “and” joins values, the source holds several entries; their conditions need not be identical. Equal entries are not always repeated. Inconclusive results and toxic doses are left out. Numbered stars: 1 amine (or outer) side, 2 acyl side, 3 side chain; on linkers, the order of the positions; unused ones are H or OH. Bridge positions count the residues as written; N and C are the ends. Square brackets hold non-standard residues; d marks the D form. Peptide text beside a SMILES is read from it. I, II: the chains in the order shown. Actinocin(9to1) = Cc1c2oc3c(C)ccc(C(=O)[*:1])c3nc-2c(C(=O)[*:2])c(N)c1=O; aThr = C[C@H](O)[C@H](N)C(=O)O; NMeV = CN[C@H](C(=O)O)C(C)C; Sar = CNCC(=O)O

Tested on: BDF1 mice, P288 leukemia ip, survival T/C
Experiment: NCI In Vivo Anticancer Drug Screen. Data for tumor model P288 Lymphocytic Leukemia (intraperitoneal) in B6D2F1 (BDF1) mice
Conditions: endpoint: survival time, mean or median, higher = longer survival
Method: The antitumor activity of compounds was measured in mice bearing transplantable tumors. Survival or tumor size were measured and the results are expressed as the measurement made in the treated group (T) divided by the measurement made in the vehicle treated control group (C). The tumor model used in this assay is P288 Lymphocytic Leukemia (intraperitoneal) in B6D2F1 (BDF1) mice

[1] = dose: 62.5 mg/kg/injection, schedule: Q01DX010 (ip), vehicle: saline
[2] = dose: 250.0 mg/kg/injection, schedule: Q01DX010 (ip), vehicle: saline
[3] = dose: 0.05 mg/kg/injection, schedule: Q01DX010 (ip), vehicle: other
[4] = dose: 62.5 mg/kg/injection, schedule: Q01DX Z (ip), vehicle: carboxymethylcellulose (CMC)
[5] = dose: 250.0 mg/kg/injection, schedule: Q01DX Z (ip), vehicle: carboxymethylcellulose (CMC)
[6] = dose: 500.0 mg/kg/injection, schedule: Q01DX Z (ip), vehicle: carboxymethylcellulose (CMC)
[7] = dose: 25.0 mg/kg/injection, schedule: Q01DX010 (ip), vehicle: saline
[8] = dose: 50.0 mg/kg/injection, schedule: Q01DX010 (ip), vehicle: saline
[9] = dose: 100.0 mg/kg/injection, schedule: Q01DX010 (ip), vehicle: saline

CC(=O)Nc1ccc(/C=N/Nc2ccc([N+](=O)[O-])cn2)cc1
T/C (dose: 31.3 mg/kg/injection, schedule: Q01DX010 (ip), vehicle: saline): 89 % of control
T/C [1]: 89 % of control
T/C [2]: 89 % of control

Nc1nc(N)c2nc(CNc3ccc(C(=O)NC(CCC(=O)O)C(=O)O)cc3)cnc2n1 (stereo not given)
T/C [3]: 100 % of control
T/C (dose: 0.1 mg/kg/injection, schedule: Q01DX010 (ip), vehicle: other): 116 % of control
T/C (dose: 0.2 mg/kg/injection, schedule: Q01DX010 (ip), vehicle: other): 177 % of control
T/C (dose: 0.4 mg/kg/injection, schedule: Q01DX010 (ip), vehicle: other): 194 % of control

CC[C@]1(O)C[C@H]2CN(CCc3c([nH]c4ccccc34)[C@@](C(=O)OC)(c3cc4c(cc3OC)N(C=O)[C@H]3[C@@](O)(C(=O)OC)[C@H](OC(C)=O)[C@]5(CC)C=CCN6CC[C@]43[C@@H]65)C2)C1
T/C (dose: 0.06 mg/kg/injection, schedule: Q01DX Z (ip), vehicle: water): 102 % of control
T/C (dose: 0.12 mg/kg/injection, schedule: Q01DX Z (ip), vehicle: water): 109 % of control
T/C (dose: 0.25 mg/kg/injection, schedule: Q01DX Z (ip), vehicle: water): 116 % of control
T/C (dose: 0.5 mg/kg/injection, schedule: Q01DX Z (ip), vehicle: water): 120 % of control and 101 % of control

CCOC(=O)NP(=O)(N1CC1(C)C)N1CC1(C)C (stereo not given)
T/C (dose: 16.0 mg/kg/injection, schedule: Q01DX Z (ip), vehicle: carboxymethylcellulose (CMC)): 95 % of control
T/C (dose: 31.0 mg/kg/injection, schedule: Q01DX Z (ip), vehicle: carboxymethylcellulose (CMC)): 98 % of control
T/C [4]: 112 % of control
T/C [5]: 180 % of control
T/C [6]: 117 % of control

COC12C(COC(N)=O)C3=C(C(=O)C(C)=C(N)C3=O)N1CC1C2N1C (stereo not given)
T/C (dose: 0.31 mg/kg/injection, schedule: Q01DX Z (ip), vehicle: carboxymethylcellulose (CMC)): 110 % of control
T/C (dose: 0.63 mg/kg/injection, schedule: Q01DX Z (ip), vehicle: carboxymethylcellulose (CMC)): 120 % of control
T/C (dose: 1.25 mg/kg/injection, schedule: Q01DX Z (ip), vehicle: carboxymethylcellulose (CMC)): 114 % of control
T/C (dose: 5.0 mg/kg/injection, schedule: Q01DX Z (ip), vehicle: carboxymethylcellulose (CMC)): 156 % of control
T/C (dose: 10.0 mg/kg/injection, schedule: Q01DX Z (ip), vehicle: carboxymethylcellulose (CMC)): 167 % of control
T/C (dose: 20.0 mg/kg/injection, schedule: Q01DX Z (ip), vehicle: carboxymethylcellulose (CMC)): 93 % of control

CC(=O)Nc1ccc2nc3ccc(NC(C)=O)cc3[n+](-c3ccccc3)c2c1
T/C (dose: 3.1 mg/kg/injection, schedule: Q01DX Z (ip), vehicle: carboxymethylcellulose (CMC)): 115 % of control
T/C (dose: 6.25 mg/kg/injection, schedule: Q01DX Z (ip), vehicle: carboxymethylcellulose (CMC)): 113 % of control
T/C [7]: 112 % of control
T/C [8]: 112 % of control and 95 % of control
T/C [9]: 95 % of control
T/C (dose: 200.0 mg/kg/injection, schedule: Q01DX010 (ip), vehicle: saline): 90 % of control
T/C (dose: 400.0 mg/kg/injection, schedule: Q01DX010 (ip), vehicle: saline): 100 % of control
T/C (dose: 400.0 mg/kg/injection, schedule: Q01DX Z (ip), vehicle: carboxymethylcellulose (CMC)): 162 % of control

CCN(CC)CCNc1ccc(C)c2sc3ccccc3c(=O)c12
T/C [7]: 110 % of control
T/C [8]: 205 % of control
T/C (dose: 51.0 mg/kg/injection, schedule: Q01DX010 (ip), vehicle: saline): 155 % of control
T/C [9]: 180 % of control

O=CN(O)CC(=O)O
T/C (dose: 31.25 mg/kg/injection, schedule: Q01DX Z (ip), vehicle: carboxymethylcellulose (CMC)): 110 % of control
T/C [1]: 100 % of control
T/C [4]: 104 % of control
T/C (dose: 125.0 mg/kg/injection, schedule: Q01DX010 (ip), vehicle: saline): 100 % of control
T/C (dose: 125.0 mg/kg/injection, schedule: Q01DX Z (ip), vehicle: carboxymethylcellulose (CMC)): 100 % of control
T/C [2]: 100 % of control
T/C [5]: 110 % of control
T/C (dose: 500.0 mg/kg/injection, schedule: Q01DX010 (ip), vehicle: saline): 88 % of control
T/C [6]: 106 % of control and 115 % of control
T/C (dose: 1000.0 mg/kg/injection, schedule: Q01DX Z (ip), vehicle: carboxymethylcellulose (CMC)): 100 % of control

CCCCn1cnc2c(=S)nc[nH]c21
T/C (dose: 16.0 mg/kg/injection, schedule: Q01DX010 (ip), vehicle: saline): 88 % of control and 94 % of control
T/C (dose: 25.0 mg/kg/injection, schedule: Q01DX Z (ip), vehicle: carboxymethylcellulose (CMC)): 108 % of control
T/C (dose: 32.0 mg/kg/injection, schedule: Q01DX010 (ip), vehicle: saline): 88 % of control and 100 % of control
T/C (dose: 50.0 mg/kg/injection, schedule: Q01DX Z (ip), vehicle: carboxymethylcellulose (CMC)): 102 % of control
T/C (dose: 64.0 mg/kg/injection, schedule: Q01DX010 (ip), vehicle: saline): 88 % of control and 100 % of control
T/C (dose: 100.0 mg/kg/injection, schedule: Q01DX Z (ip), vehicle: carboxymethylcellulose (CMC)): 106 % of control and 113 % of control
T/C (dose: 128.0 mg/kg/injection, schedule: Q01DX010 (ip), vehicle: saline): 100 % of control
T/C (dose: 200.0 mg/kg/injection, schedule: Q01DX Z (ip), vehicle: carboxymethylcellulose (CMC)): 100 % of control

O=C(Nc1ccc(C2=NCCN2)cc1)c1ccc(C(=O)Nc2ccc(C3=NCCN3)cc2)c([N+](=O)[O-])c1
T/C (dose: 6.0 mg/kg/injection, schedule: Q01DX010 (ip), vehicle: saline): 155 % of control and 175 % of control
T/C (dose: 8.0 mg/kg/injection, schedule: Q01DX010 (ip), vehicle: saline): 188 % of control and 262 % of control
T/C (dose: 12.0 mg/kg/injection, schedule: Q01DX010 (ip), vehicle: saline): 333 % of control and 375 % of control
T/C (dose: 18.0 mg/kg/injection, schedule: Q01DX010 (ip), vehicle: saline): 187 % of control

Cc1c2oc3c(C)ccc(C(=O)N[C@@H]4C(=O)N[C@H](C(C)C)C(=O)N5CCC[C@H]5C(=O)N(C)CC(=O)N(C)[C@@H](C(C)C)C(=O)O[C@H]4C)c3nc-2c(C(=O)N[C@@H]2C(=O)N[C@H](C(C)C)C(=O)N3CCC[C@H]3C(=O)N(C)CC(=O)N(C)[C@@H](C(C)C)C(=O)O[C@H]2C)c(N)c1=O (I: [aThr][dV]P[Sar][NMeV] / II: [aThr][dV]P[Sar][NMeV]; ester I:1-I:C, II:1-II:C; linker I:N-II:N via Actinocin(9to1))
T/C [3]: 155 % of control

NC(=O)N(CCCl)N=O
T/C (dose: 0.5 mg/kg/injection, schedule: Q01DX010 (ip), vehicle: saline): 205 % of control
T/C (dose: 1.0 mg/kg/injection, schedule: Q01DX010 (ip), vehicle: saline): 222 % of control
T/C (dose: 1.0 mg/kg/injection, schedule: Q01DX Z (ip), vehicle: carboxymethylcellulose (CMC)): 105 % of control
T/C (dose: 2.0 mg/kg/injection, schedule: Q01DX010 (ip), vehicle: saline): 166 % of control
T/C (dose: 2.0 mg/kg/injection, schedule: Q01DX Z (ip), vehicle: carboxymethylcellulose (CMC)): 98 % of control
T/C (dose: 4.0 mg/kg/injection, schedule: Q01DX Z (ip), vehicle: carboxymethylcellulose (CMC)): 104 % of control
T/C (dose: 8.0 mg/kg/injection, schedule: Q01DX Z (ip), vehicle: carboxymethylcellulose (CMC)): 152 % of control and 210 % of control

O=C1CCC(N2C(=O)c3ccccc3C2=O)C(=O)N1 (stereo not given)
T/C (dose: 18.75 mg/kg/injection, schedule: Q01DX Z (ip), vehicle: carboxymethylcellulose (CMC)): 91 % of control
T/C (dose: 37.5 mg/kg/injection, schedule: Q01DX Z (ip), vehicle: carboxymethylcellulose (CMC)): 94 % of control
T/C (dose: 75.0 mg/kg/injection, schedule: Q01DX Z (ip), vehicle: carboxymethylcellulose (CMC)): 97 % of control
T/C (dose: 150.0 mg/kg/injection, schedule: Q01DX Z (ip), vehicle: carboxymethylcellulose (CMC)): 101 % of control and 88 % of control
T/C (dose: 300.0 mg/kg/injection, schedule: Q01DX Z (ip), vehicle: carboxymethylcellulose (CMC)): 94 % of control
T/C (dose: 600.0 mg/kg/injection, schedule: Q01DX Z (ip), vehicle: carboxymethylcellulose (CMC)): 87 % of control
